The results in this text go back to patent US8546608B2, “Proteasome inhibitors and methods of using the same” (Cephalon, Inc., priority 2003, dated 2013).

Some results are limits rather than exact numbers.

For assay [1], the target named is T1, 20S Human Erythrocyte Proteasome (HEP) (Homo sapiens, UniProt P20618+P28074).
T1 construct: 20S Human Erythrocyte Proteasome (HEP), purchased from Immatics Biotechnologies Inc; purchased Immatics Biotechnologies Inc., Tübingen, Germany; host or cells: human erythrocytes (natural source)
Description: Chymotrypsin-like activity of 20S Human Erythrocyte Proteasome (HEP), IC50 determination. The class given is biochemical. The conditions noted are these: assay of Example C, inhibition of HEP. In outline: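 20S proteasome at 0.2 μg/mL (about 0.6 nM catalytic sites) in 20 mM Tris with 0.04% SDS, preincubated 15 min at 37° C with inhibitor before Suc-LLVY-AMC (100 μM final). AMC fluorescence read in the linear range; triplicates, IC50 from concentration series.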

Assay [2] concerns the target T2, proteasome in Molt-4 cells (human leukemia) (Homo sapiens, UniProt P20618+P28074).
T2 sequence (P28074 60-263): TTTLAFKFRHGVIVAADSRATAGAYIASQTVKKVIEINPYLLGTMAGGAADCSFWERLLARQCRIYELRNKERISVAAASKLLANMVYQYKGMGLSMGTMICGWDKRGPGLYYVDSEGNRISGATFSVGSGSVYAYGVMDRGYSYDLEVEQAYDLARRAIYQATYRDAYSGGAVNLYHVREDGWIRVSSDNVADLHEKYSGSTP
T2 sequence (P20618 29-241): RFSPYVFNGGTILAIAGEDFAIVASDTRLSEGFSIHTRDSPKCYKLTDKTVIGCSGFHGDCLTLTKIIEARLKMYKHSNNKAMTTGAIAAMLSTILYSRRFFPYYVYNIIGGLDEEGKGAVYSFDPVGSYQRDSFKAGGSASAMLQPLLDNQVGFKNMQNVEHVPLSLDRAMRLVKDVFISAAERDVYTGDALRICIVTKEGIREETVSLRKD
In kind it is cell-based. The conditions noted are these: assay of Example E, inhibition of MOLT4; read-out: MOLT4 (EC50). In a few lines: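 Intact Molt-4 cells (6×10^6 cells/mL) in HEPES-buffered saline were preincubated with inhibitor 15 min at 37 °C, then given cell-permeable MeOSuc-FLF-AFC at 25 μM final.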

As to `CC(C)C[C@H](NC(=O)[C@H](CCCNC(=N)N[N+](=O)[O-])NC(=O)CCCCc1ccccc1)B1O[C@@H]2C[C@@H]3C[C@@H](C3(C)C)[C@]2(C)O1` [D.3.132, 5-Phenylpentanamide,N-[(1S)-1-[[[(1R)-1-[(3aS,4S,6S,7aR)-hexahydro-3a,5,5-trimethyl-4,6-methano-1,3,2-benzodioxaborol-2-yl]-3-methylbutyl]amino]carbonyl]-4-[[imino(nitroamino)methyl]amino]butyl]], the IC50 (as a rule, the point on the concentration scale where inhibition reaches its midpoint) in assay [1] was less than 10 nM. The EC50 – broadly, the concentration needed to bring the measured effect to its halfway point – in assay [2] was less than 200 nM.

In turn, `CC(C)C[C@H](NC(=O)[C@H](CCCNC(=N)N[N+](=O)[O-])NC(=O)CCCCCCCCCO)B1O[C@@H]2C[C@@H]3C[C@@H](C3(C)C)[C@]2(C)O1` [D.3.133, 10-Hydroxydecanamide,N-[(1S)-1-[[[(1R)-1-[(3aS,4S,6S,7aR)-hexahydro-3a,5,5-trimethyl-4,6-methano-1,3,2-benzodioxaborol-2-yl]-3-methylbutyl]amino]carbonyl]-4-[[imino(nitroamino)methyl]amino]butyl]] yielded an IC50 in assay [1] of less than 10 nM. Also, the concentration for a half-maximal effect (EC50) in assay [2] fell in the range of 200 to 2000 nM.

In turn, `CC(C)C[C@H](NC(=O)[C@H](CCCNC(=N)N[N+](=O)[O-])NC(=O)Cn1cnnn1)B1O[C@@H]2C[C@@H]3C[C@@H](C3(C)C)[C@]2(C)O1` [D.3.136] yielded an IC50 in assay [1] of less than 10 nM. In assay [2], the half-maximal effective concentration (EC50) was greater than 10000 nM.

Compound `CC(C)C[C@H](NC(=O)[C@H](CCCNC(=N)N[N+](=O)[O-])NC(=O)CSc1ncccn1)B1O[C@@H]2C[C@@H]3C[C@@H](C3(C)C)[C@]2(C)O1` [D.3.137] gave an IC50 in assay [1] of less than 100 nM. The concentration giving a half-maximal response (EC50) in assay [2] is 2000 to 10000 nM.

On to `CSCCC(=O)N[C@@H](CCCNC(=N)N[N+](=O)[O-])C(=O)N[C@@H](CC(C)C)B1O[C@@H]2C[C@@H]3C[C@@H](C3(C)C)[C@]2(C)O1` [D.3.138, 3-Methylsulfanylpropanamide,N-[(1S)-1-[[[(1R)-1-[(3aS,4S,6S,7aR)-hexahydro-3a,5,5-trimethyl-4,6-methano-1,3,2-benzodioxaborol-2-yl]-3-methylbutyl]amino]carbonyl]-4-[[imino(nitroamino)methyl]amino]butyl]], for which the IC50 in assay [1] was less than 100 nM. In addition, the EC50 in assay [2] is 200 to 2000 nM.

Consider `CC(=O)SCCCCCC(=O)N[C@@H](CCCNC(=N)N[N+](=O)[O-])C(=O)N[C@@H](CC(C)C)B1O[C@@H]2C[C@@H]3C[C@@H](C3(C)C)[C@]2(C)O1` [D.3.161, 6-(Acetylsulfanyl)hexanamide,N-[(1S)-1-[[[(1R)-1-[(3aS,4S,6S,7aR)-hexahydro-3a,5,5-trimethyl-4,6-methano-1,3,2-benzodioxaborol-2-yl]-3-methylbutyl]amino]carbonyl]-4-[[imino(nitroamino)methyl]amino]butyl]], for which the IC50 in assay [1] is less than 10 nM. The EC50 in assay [2] was 200 to 2000 nM.

The compound `CC(C)C[C@H](NC(=O)[C@@H](NC(=O)c1ccccc1)[C@@H](C)O)B1O[C@@H]2C[C@@H]3C[C@@H](C3(C)C)[C@]2(C)O1` [D.3.174, Benzamide,N-[(1S,2R)-1-[[[(1R)-1-[(3aS,4S,6S,7aR)-hexahydro-3a,5,5-trimethyl-4,6-methano-1,3,2-benzodioxaborol-2-yl]-3-methylbutyl]amino]carbonyl]-2-hydroxypropyl]] showed an IC50 in assay [1] of less than 100 nM. In assay [2], the EC50 was less than 200 nM.

In the case of `COCCOCCOCC(=O)N[C@H](C(=O)N[C@@H](CC(C)C)B1O[C@@H]2C[C@@H]3C[C@@H](C3(C)C)[C@]2(C)O1)[C@@H](C)O` [D.3.175, 2-[2-(2-Methoxyethoxy)ethoxy]acetamide,N-[(1S,2R)-1-[[[(1R)-1-[(3aS,4S,6S,7aR)-hexahydro-3a,5,5-trimethyl-4,6-methano-1,3,2-benzodioxaborol-2-yl]-3-methylbutyl]amino]carbonyl]-2-hydroxypropyl]], the half-maximal inhibitory concentration (IC50) in assay [1] was less than 100 nM. Besides, in assay [2], the concentration for a half-maximal effect (EC50) lay in the range of 200 to 2000 nM.

Regarding `CC(C)C[C@H](NC(=O)[C@@H](NC(=O)CCCc1ccccc1)[C@@H](C)O)B1O[C@@H]2C[C@@H]3C[C@@H](C3(C)C)[C@]2(C)O1` [D.3.176, 4-Phenylbutanamide,N-[(1S,2R)-1-[[[(1R)-1-[(3aS,4S,6S,7aR)-hexahydro-3a,5,5-trimethyl-4,6-methano-l53.2-benzodioxaborol-2-yl]-3-methylbutyl]amino]carbonyl]-2-hydroxypropyl]], the half-inhibitory concentration (IC50) in assay [1] was less than 10 nM. For the same compound, in assay [2], the concentration for a half-maximal effect (EC50) is less than 200 nM.

In assay [1], `Cc1ccc(OCC(=O)N[C@H](C(=O)N[C@@H](CC(C)C)B2O[C@@H]3C[C@@H]4C[C@@H](C4(C)C)[C@]3(C)O2)[C@@H](C)O)cc1` [D.3.177, (4-Methylphenoxy)acetamide,N-[(1S,2R)-1-[[[(1R)-1-[(3aS,4S,6S,7aR)-hexahydro-3a,5,5-trimethyl-4,6-methano-1,3,2-benzodioxaborol-2-yl]-3-methylbutyl]amino]carbonyl]-2-hydroxypropyl]] registered an IC50 of less than 10 nM. In assay [2], the 50% effective concentration (EC50) was less than 200 nM.

For the compound `CCCCCC(=O)N[C@H](C(=O)N[C@@H](CC(C)C)B1O[C@@H]2C[C@@H]3C[C@@H](C3(C)C)[C@]2(C)O1)[C@@H](C)O` [D.3.178, Hexanamide,N-[(1S,2R)-1-[[[(1R)-1-[(3aS,4S,6S,7aR)-hexahydro-3a,5,5-trimethyl-4,6-methano-1,3,2-benzodioxaborol-2-yl]-3-methylbutyl]amino]carbonyl]-2-hydroxypropyl]], the IC50 in assay [1] was less than 100 nM. For the same compound, the EC50 in assay [2] was less than 200 nM.

In assay [1], `CCCCc1ccc(C(=O)N[C@H](C(=O)N[C@@H](CC(C)C)B2O[C@@H]3C[C@@H]4C[C@@H](C4(C)C)[C@]3(C)O2)[C@@H](C)O)cc1` [D.3.179, 4-butylbenzamide, N-[(1S,2R)-1-[[[(1R)-1-[(3aS,4S,6S,7aR)-hexahydro-3a,5,5-trimethyl-4,6-methano-1,3,2-benzodioxaborol-2-yl]-3-methylbutyl]amino]-carbonyl]-2-hydroxypropyl]-] had an IC50 of less than 10 nM. In assay [2], the EC50 is less than 200 nM.

In the case of `CC(C)C[C@H](NC(=O)[C@@H](NC(=O)c1ccc2ccccc2c1)[C@@H](C)O)B1O[C@@H]2C[C@@H]3C[C@@H](C3(C)C)[C@]2(C)O1` [D.3.180, Naphthalene-2-carboxamide,N-[(1S,2R)-1-[[[(1R)-1-[(3aS,4S,6S,7aR)-hexahydro-3a,5,5-trimethyl-4,6-methano-1,3,2-benzodioxaborol-2-yl]-3-methylbutyl]amino]carbonyl]-2-hydroxypropyl]], the half-maximal inhibitory concentration (IC50) in assay [1] is less than 10 nM. In addition, in assay [2], the EC50 is less than 200 nM.

`Cc1ccc(S(=O)(=O)CC(=O)N[C@@H](CCCNC(=N)N[N+](=O)[O-])C(=O)N[C@@H](CC(C)C)B2O[C@@H]3C[C@@H]4C[C@@H](C4(C)C)[C@]3(C)O2)cc1` [D.3.182] registered an IC50 in assay [1] of less than 100 nM. Besides, in assay [2], the 50% effective concentration (EC50) lay in the range of 200 to 2000 nM.

`CC(C)C[C@H](NC(=O)[C@H](CCCNC(=N)N[N+](=O)[O-])NC(=O)CS(=O)(=O)c1ccccc1)B1O[C@@H]2C[C@@H]3C[C@@H](C3(C)C)[C@]2(C)O1` [D.3.185, 2-(Benzenesulfonyl)acetamide,N-[(1S)-1-[[[(1R)-1-[(3aS,4S,6S,7aR)-hexahydro-3a,5,5-trimethyl-4,6-methano-1,3,2-benzodioxaborol-2-yl]-3-methylbutyl]amino]carbonyl]-4-[[imino(nitroamino)methyl]amino]butyl]] displayed a half-maximal inhibitory concentration (IC50) in assay [1] of less than 10 nM. Moreover, the 50% effective concentration (EC50) in assay [2] is less than 200 nM.

Compound `CC(C)C[C@H](NC(=O)[C@H](CCCNC(=N)N[N+](=O)[O-])NC(=O)CCCCCCCCC#N)B1O[C@@H]2C[C@@H]3C[C@@H](C3(C)C)[C@]2(C)O1` [D.3.186, 9-Cyanononamide, N-[(1S)-1-[[[(1R)-1-[(3aS,4S,6S,7aR)-hexahydro-3a,5,5-trimethyl-4,6-methano-1,3,2-benzodioxaborol-2-yl]-3-methylbutyl]amino]carbonyl]-4-[[imino(nitroamino)methyl]amino]butyl]] registered a half-inhibitory concentration (IC50) in assay [1] of less than 10 nM. In addition, the EC50 in assay [2] is less than 200 nM.

`CC(C)C[C@H](NC(=O)[C@H](CCCNC(=N)N[N+](=O)[O-])NC(=O)CCCCCCCCCCCN1C(=O)c2ccccc2C1=O)B1O[C@@H]2C[C@@H]3C[C@@H](C3(C)C)[C@]2(C)O1` [D.3.189, 12-(1,3-Dioxo-1,3-dihydro-isoindol-2-yl)-dodecanamide, N-[(1S)-1-[[[(1R)-1-[(3aS,4S,6S,7aR)-hexahydro-3a,5,5-trimethyl-4,6-methano-1,3,2-benzodioxaborol-2-yl]-3-methylbutyl]amino]carbonyl]-4-[[imino(nitroamino)methyl]amino]butyl]] had an IC50 in assay [1] of less than 10 nM. For the same compound, the EC50 in assay [2] is less than 200 nM.

`CC(C)C[C@H](NC(=O)[C@H](CCCNC(=N)N[N+](=O)[O-])NC(=O)CCc1ccc(C(C)C)cc1)B1O[C@@H]2C[C@@H]3C[C@@H](C3(C)C)[C@]2(C)O1` [D.3.190, 3-[4-(2-Propyl)phenyl]propanamide, N-[(1S)-1-[[[(1R)-1-[(3aS,4S,6S,7aR)-hexahydro-3a,5,5-trimethyl-4,6-methano-1,3,2-benzodioxaborol-2-yl]-3-methylbutyl]amino]carbonyl]-4-[[imino(nitroamino)methyl]amino]butyl]] had a half-inhibitory concentration (IC50) in assay [1] of less than 10 nM. Moreover, the EC50 in assay [2] is less than 200 nM.
